The values that follow come from patent US11814364B2, “Pyridine N-oxide derivatives useful as factor XIa inhibitors” (Janssen Pharmaceutica NV, priority 2021, dated 2023).

The target of the test is human plasma kallikrein (Homo sapiens, UniProt P03952). The experiment in a line: Kallikrein inhibition FLINT assay with quenched AMC peptide substrate Z-Gly-Pro-Arg-AMC (end point EP or kinetic KIN reads). The test is classed as biochemical. The following applies: kinetic reads at 5 min intervals over 30 min; read-out: Kallikrein (KIN) IC50. The procedure:
A fluorescence intensity (FLINT) based assay was used to monitor inhibition of human plasma kallikrein.
The Kallikrein FLINT assay was used with the following Z-Gly-Pro-Arg-AMC assay buffer: 50 mM Tris, pH 7.5, 100 mM NaCl, 5 mM CaCl2, 0.1 mg/mL BSA, 0.03% CHAPS. Assay buffer was prepared by mixing all ingredients fresh. 2× Z-Gly-Pro-Arg-AMC peptide substrate was prepared by diluting 10 mM stock into 1× assay buffer for a 100 μM working concentration (50 μM final concentration).
Test compound(s) were run in an 11-point, 3-fold serial dilution with a final top compound concentration of 1 μM. Final DMSO in assay was 2%. Plasma kallikrein was pre-incubated for 30-minute with compound and then 50 μM substrate was added to initiate the reaction. The assay was run with either end point (EP) reads at 30 min or kinetic (KIN) reads at 5 min intervals over 30 minutes.
Percent inhibition (IC50) curves were generated per compound tested, and data was analyzed using a 4-parameter logistic fit using GeneData Screener. The relative fluorescence unit (RFU) values were normalized to percent inhibition using the following equation: % inhibition=((HC−LC)−(compound−LC)/(HC−LC))*100
An 11-point dose response curve for the test compound(s) was generated using GENDATA to determine IC50 value based on the following equation: Y=Bottom+(Top−Bottom)/(1+10^((log IC50−X)*HillSlope))
Results listed in columns with […] designation were measured using endpoint reads where a single fluorescence reading was measured for each well at a 30 min timepoint.

Chain of human plasma kallikrein (P03952 391-638 limits assumed): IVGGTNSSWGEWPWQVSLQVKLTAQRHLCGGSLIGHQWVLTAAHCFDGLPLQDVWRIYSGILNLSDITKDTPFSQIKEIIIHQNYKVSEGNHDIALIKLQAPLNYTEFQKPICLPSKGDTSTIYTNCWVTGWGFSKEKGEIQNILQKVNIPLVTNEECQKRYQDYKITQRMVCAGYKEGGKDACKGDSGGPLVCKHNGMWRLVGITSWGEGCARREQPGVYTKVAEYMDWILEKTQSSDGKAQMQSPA
Chain of human plasma kallikrein (P03952 20-390 partner limits assumed): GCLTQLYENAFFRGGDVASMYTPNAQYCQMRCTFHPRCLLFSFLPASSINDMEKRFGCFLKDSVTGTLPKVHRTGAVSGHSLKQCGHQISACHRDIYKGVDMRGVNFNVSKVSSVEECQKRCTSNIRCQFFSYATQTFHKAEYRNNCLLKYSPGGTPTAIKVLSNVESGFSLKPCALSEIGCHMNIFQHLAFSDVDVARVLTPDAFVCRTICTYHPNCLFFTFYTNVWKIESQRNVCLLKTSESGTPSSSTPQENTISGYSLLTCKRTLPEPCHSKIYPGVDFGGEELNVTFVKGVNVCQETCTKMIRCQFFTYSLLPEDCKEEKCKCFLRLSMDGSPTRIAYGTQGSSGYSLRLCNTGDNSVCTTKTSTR

As for `[2H]C([2H])([2H])OCCC(c1ccc(-c2c(-n3cnnn3)ccc(Cl)c2F)c[n+]1[O-])n1cc(-c2ccc(NC(=O)OC)cc2)cn1` (stereo not drawn) [Example P289], the IC50 – broadly, the concentration needed to halve the response being measured – was 13.8 nM.

In the case of `NC(=O)C1CC1CC(c1ccc(-c2c(-n3cnnn3)ccc(Cl)c2F)c[n+]1[O-])n1cc(-c2ccc(N)nc2F)cn1` (single isomer, unassigned) [Example P340], the IC50 came out at 39.3 nM. Regarding `CN(C)C(=O)N(C)CC(c1ccc(-c2c(-n3cnnn3)ccc(Cl)c2F)c[n+]1[O-])n1cc(-c2ccnc(C(F)(F)F)c2)cn1` (stereo not drawn) [Example P437], the IC50 came out at 113 nM.

As to `COC(=O)NC(C)c1ccc(-c2cnn(C(Cc3ccccc3)c3ccc(-c4cc(Cl)ccc4-n4cnnn4)c[n+]3[O-])c2)cc1` (stereo not drawn) [Example P58], the IC50 is 28.5 nM. As for `O=C(O)c1ccc(-c2cnn(C(CCOC(F)F)c3ccc(-c4c(-n5cc(Cl)nn5)ccc(Cl)c4F)c[n+]3[O-])c2)cc1F` (single isomer, unassigned) [Example P881], the figure is 7.3 nM; as for `CCC(c1ccc(-c2c(-n3cnnn3)ccc(Cl)c2F)c[n+]1[O-])n1cc(-c2cc[n+]([O-])cc2)cn1` (single isomer, unassigned) [Example P234], 298 nM.

With `N#Cc1cc(-c2cnn(C(CN3CCCC3=O)c3ccc(-c4c(-n5cnnn5)ccc(Cl)c4F)c[n+]3[O-])c2)ccn1` (stereo not drawn) [Example P461], the half-maximal inhibitory concentration (IC50) is 32.5 nM. As for `COc1cc(C(CC2CC2)n2cc(-c3ncnn3C)cn2)[n+]([O-])cc1-c1cc(Cl)ccc1C#N` (single isomer, unassigned) [Example Q61], the figure is 281 nM; as for `Cc1ncsc1-c1cnn(C(CC2CC2)c2ccc(-c3c(-n4cnnn4)ccc(Cl)c3F)c[n+]2[O-])c1` (stereo not drawn) [Example P488], 92.5 nM; as for `Cn1nncc1-c1cnn([C@H](Cc2ccc(C(F)(F)F)nc2)c2ccc(-c3c(-n4cc(Cl)nn4)ccc(Cl)c3F)c[n+]2[O-])c1` [Example P772], 42.3 nM. As for `[O-][n+]1cc(-c2c(-n3cnnn3)ccc(Cl)c2F)ccc1[C@@H](CCOC(F)F)n1cc(-c2c(Cl)nnn2C(F)F)cn1` [Example P714], the figure is 28.6 nM; as for `[2H]C([2H])(C[C@H](c1ccc(-c2c(-n3cc(C(F)(F)F)nn3)ccc(Cl)c2F)c[n+]1[O-])n1cc(-c2ncnn2C)cn1)OC(F)F` [Example P834], 68 nM; as for `COCCC(c1ccc(-c2c(-n3cnnn3)ccc(Cl)c2F)c[n+]1[O-])n1cc(-c2ccc(NC(=O)OC)cc2)cn1` (single isomer, unassigned) [Example P84], 14.5 nM. For `[2H]C([2H])([2H])C([2H])([2H])CC(c1ccc(-c2c(-n3cc(Cl)nn3)ccc(Cl)c2F)c[n+]1[O-])n1cc(-c2ccc(C(N)=O)c(F)c2)cn1` (stereo not drawn) [Example P926], the IC50 is 19.2 nM. To `COC(=O)Nc1ccc(-c2cnn(C(CN(C)C(=O)OC)c3ccc(-c4c(-n5cnnn5)ccc(Cl)c4F)c[n+]3[O-])c2)cc1` (stereo not drawn) [Example P476] belongs 21.6 nM; to `Cn1ncc(O)c1-c1cnn(C(CCOC(F)F)c2ccc(-c3c(-n4cc(Cl)nn4)ccc(Cl)c3F)c[n+]2[O-])c1` (stereo not drawn) [Example P747], 26.2 nM; to `[O-][n+]1cc(-c2c(-n3cnnn3)ccc(Cl)c2F)ccc1C(CC1CC1)n1cc(-c2ccnc(C(F)(F)F)n2)cn1` (stereo not drawn) [Example P295], 385 nM. As for `COCC[C@H](c1ccc(-c2c(-n3cnnn3)ccc(Cl)c2F)c[n+]1[O-])n1cc(-c2nn(C(F)F)cc2Cl)cn1` [Example P576], the concentration for half-maximal inhibition (IC50) turned out to be 62.4 nM. As for `Cc1cc(-c2cnn(C(Cn3cccn3)c3ccc(-c4c(-n5cnnn5)ccc(Cl)c4F)c[n+]3[O-])c2)ccn1` (stereo not drawn) [Example P310], the figure is 9 nM. Take `CN(CC(c1ccc(-c2c(-n3cnnn3)ccc(Cl)c2F)c[n+]1[O-])n1cc(-c2ccnc(F)c2)cn1)C(=O)C(C)(C)C` (stereo not drawn) [Example P426]: the half-maximal inhibitory concentration (IC50) was determined as 53.6 nM. To `[O-][n+]1cc(-c2c(-n3cnnn3)ccc(Cl)c2F)ccc1C(Cc1ccc(F)cc1)n1cc(-c2c(Cl)nnn2C(F)F)cn1` (stereo not drawn) [Example P605] belongs 10.7 nM. As for `N#Cc1cc(-c2cnn(C(CC3CC3)c3ccc(-c4c(-n5cnnn5)ccc(Cl)c4F)c[n+]3[O-])c2)ccn1` (stereo not drawn) [Example P294], the figure is 212 nM. As to `[O-][n+]1cc(-c2c(-n3cnnn3)ccc(Cl)c2F)ccc1C(CC1CC1)n1cc(-c2cnco2)cn1` (stereo not drawn) [Example P497], the IC50 was determined as 169 nM. As for `COCC[C@@H](c1ccc(-c2c(-n3cnnn3)ccc(Cl)c2F)c[n+]1[O-])n1cc(-c2cc(C(F)(F)F)nn2C)cn1` [Example P620], the figure is 5290 nM; as for `Cn1nnc(F)c1-c1cnn([C@H](Cc2ccc(C(F)(F)F)nc2)c2ccc(-c3c(-n4cnnn4)ccc(Cl)c3F)c[n+]2[O-])c1` [Example P780], 17.7 nM. To `[O-][n+]1cc(-c2c(C(F)F)ccc(Cl)c2F)ccc1C(CCOC(F)F)n1cc(-c2ccnc(C(F)(F)F)n2)cn1` (stereo not drawn) [Example Q29] belongs 259 nM.

Take `NC(=O)C1CC1CC(c1ccc(-c2c(-n3cnnn3)ccc(Cl)c2F)c[n+]1[O-])n1cc(-c2ccncc2)cn1` (stereo not drawn) [Example P260]: the IC50 turned out to be 72.5 nM.

For the compound `[O-][n+]1ccc(-c2cnn(C(Cc3ccc(F)cc3)c3ccc(-c4c(OC(F)F)ccc(Cl)c4F)c[n+]3[O-])c2)cc1` (single isomer, unassigned) [Example Q17], the IC50 came to 7820 nM. In the case of `O=C(C1CC1CC(c1ccc(-c2c(-n3cnnn3)ccc(Cl)c2F)c[n+]1[O-])n1cc(-c2ccncc2)cn1)N1CCCC1` (stereo not drawn) [Example P266], the IC50 is 197 nM. Take `COc1ccc(CC(c2ccc(-c3c(-n4cnnn4)ccc(Cl)c3F)c[n+]2[O-])n2cc(-c3ccc(C(=O)NC4CC4)cc3)cn2)cc1` (stereo not drawn) [Example P135]: the IC50 was 10.8 nM. With `O=C(NC1CC1)c1ccc(-c2cnn(C(Cc3ccc(F)cc3)c3ccc(-c4c(-c5cnco5)ccc(Cl)c4F)c[n+]3[O-])c2)cc1` (stereo not drawn) [Example P136], the IC50 came out at 189 nM. With `Cc1cc(C(CC2CC2)n2cc(-c3cnn(C)c(=O)c3)cn2)[n+]([O-])cc1-c1c(-n2cnnn2)ccc(Cl)c1F` (stereo not drawn) [Example P130], the IC50 is 959 nM. In the case of `NC(=O)c1ccn(CC(c2ccc(-c3c(-n4cnnn4)ccc(Cl)c3F)c[n+]2[O-])n2cc(-c3ccnc(C(F)(F)F)c3)cn2)n1` (single isomer, unassigned) [Example P448], the IC50 was found to be 9.4 nM. To `COC(=O)Nc1ccc(-c2cnn(C(CC3CCC(C)CC3)c3ccc(-c4c(-n5cnnn5)ccc(Cl)c4F)c[n+]3[O-])c2)cc1` (stereo not drawn) [Example P129] belongs 136 nM; to `NC(=O)c1ccc(-c2cnn(C(Cc3ccn(C(F)F)n3)c3ccc(-c4c(OC(F)F)ccc(Cl)c4F)c[n+]3[O-])c2)cc1F` (single isomer, unassigned) [Example Q72], 544 nM. With `[O-][n+]1cc(-c2c(-n3cnnn3)ccc(Cl)c2F)ccc1[C@@H](CCOC(F)F)n1cc(-c2scnc2Cl)cn1` [Example P582], the concentration for half-maximal inhibition (IC50) came out at 0.9 nM. With `CC1CC1CC(c1ccc(-c2c(-n3cnnn3)ccc(Cl)c2F)c[n+]1[O-])n1cc(-c2ccc(C(=O)O)cc2)cn1` (stereo not drawn) [Example P227], the 50% inhibitory concentration (IC50) amounted to 11.9 nM. As to `COC(=O)Nc1ccc(-c2cnn(C(CC3CC3C(N)=O)c3ccc(-c4c(-n5cnnn5)ccc(Cl)c4F)c[n+]3[O-])c2)cc1` (stereo not drawn) [Example P249], the 50% inhibitory concentration (IC50) is 668 nM.

On to `COC(=O)N1CCCC(c2cnn(C(CC3CC3)c3ccc(-c4c(-n5cnnn5)ccc(Cl)c4F)c[n+]3[O-])c2)C1` (stereo not drawn) [Example P108], for which the half-inhibitory concentration (IC50) was 649 nM.
